Legend:
U87M2 [1] = experiment: Serum HGF ELISA, U87M2 tumor-bearing mice; assay type: in vivo; details: end of efficacy study, mean ± SD
Experimental: (§1) At the end of the efficacy study, mouse serum was collected from each group and kept at −80° C. until use. For HGF expression level, 50 μl of serum was used for an ELISA test (R&D) according to the kit instructions. At least five samples were tested. Data represent mean±SD. Student's t test was used for statistical analysis.

U118 [2] = experiment: Serum HGF ELISA, U118 tumor-bearing mice; assay type: in vivo; details: end of efficacy study, mean ± SD
Experimental: as §1

SF295 SQ1 = experiment: Serum HGF ELISA, SF295 SQ1 tumor-bearing mice; assay type: in vivo; details: end of efficacy study, mean ± SD
Experimental: as §1

X01-GB = experiment: In vivo efficacy study, X01-GB GBM stem cell tumors; parameters: species or system mice; details: for tumor response: X01-GB tumors, erlotinib at 75 mg/kg
Experimental: (§2) All animal studies were approved by the IACUC of the Van Andel Research Institute. Each GBM cell line (5×10^5 cells in 100 μl PBS) was inoculated into both SCID and SCIDhgf mice subcutaneously. For V13 tumor line, tumors were transplanted into SCIDhgf mice at the flank to initiate tumor growth. Tumor size was measured with a caliper twice a week. When average tumor size reached 100 mm^3, mice were grouped (n=10) for treatment as indicated. Dosing with SGX523 and/or erlotinib was delivered once daily by oral gavage for 3 weeks. Vehicles used were 0.5% MC 400 with 0.05% Tween 80 (SGX523) and 0.5% (w/v) methyl cellulose (erlotinib). Tumor size was measured by a caliper twice a week. Body weight was measured once a week. All mice were sacrificed 24 h after last dose. To determine the effectiveness of treatment, the average tumor size of each group from the last measurement was analyzed with Student's t test (α=0.05).

U87M2 [3] = experiment: In vivo SGX523 and erlotinib therapeutic efficacy study, U87M2 xenograft; parameters: species or system mice
Experimental: as §2

V13 = experiment: In vivo efficacy study, V13 GBM patient-derived xenograft; parameters: species or system mice; details: for tumor response: V13 in SCIDhgf mice, Erlotinib at 75 mg/kg
Experimental: The V13 GBM xenograft tumor line was generated from the primary tumor of a GBM patient upon surgical removal. The fresh tumor specimen was split into two pieces, one to be divided and implanted into 5 nude mice to propagate tumor growth and another piece to be directly digested with 0.05% trypin into single cells and grown in Neuro-basal medium with 10% FBS supplemented with EGF (20 ng/ml), bFGF (20 ng/ml) and 1% penicillin and streptomycin at 37° C. The tumors growing from nude mice were analyzed using FISH to compare them with the original tumor and were further transplanted into the host nude mice to maintain tumor growth in vivo. All studies involving human subjects and human tissues were approved by IRB committee of Van Andel Research Institute.
as §2

U251M2 = experiment: In vivo SGX523 and erlotinib therapeutic efficacy study, U251M2 xenograft; parameters: species or system mice; details: for tumor sensitivity to single agent: either drug alone
Experimental: as §2

DBM2 = experiment: In vivo SGX523 and erlotinib therapeutic efficacy study, DBM2 xenograft; parameters: species or system mice
Experimental: as §2

[4] = system: U251M2, T98G, and DBM2 cells; experiment: HGF- and EGF-induced uPA activity in GBM cells without autocrine HGF; assay type: cell-based, human; details: for cross inhibition between MET and EGFR pathways (uPA activity): early time point in vitro
Experimental: (§3) Cells were grown overnight in DMEM/10% FBS. Drugs were dissolved in DMSO and serially diluted from stock concentrations into DMEM/10% FBS medium and added to the appropriate wells. Immediately after drug or reagent addition, HGF/SF (60 ng/ml) was added to all wells (with the exception of wells used as controls to calculate basal growth and uPA-plasmin activity levels). Twenty-four hours after drug and HGF/SF addition, plates were processed for the determination of plasmin activity as described previously (22). Wells were washed twice with DMEM (without phenol red; Life Technologies, Inc.), and 200 μl of reaction buffer [50% (v/v) 0.05 units/ml plasminogen in DMEM (without phenol red), 40% (v/v) 50 mM Tris buffer (pH 8.2), and 10% (v/v) 3 mM Chromozyme PL (Boehringer Mannheim) in 100 mM glycine solution] was added to each well. The plates were then incubated at 37° C., 5% CO2, for 4 h, at which time the absorbance was read on an automated spectrophotometric plate reader at the single wavelength of 405 nm.

DBM2 cells = experiment: HGF/EGF-induced downstream signaling, Western blot, DBM2; assay type: cell-based, human
Experimental: (§4) Cells were seeded in 10-cm dishes and grown until 80% confluent. After serum starvation overnight, cells were treated with or without SGX523 for 4 h with (or without) human HGF/SF or EGF (100 ng/ml) for 20 minutes at 37° C. The cells were washed twice with ice-cold 1×PBS, and whole cell lysates were prepared using RIPA buffer. The protein concentrations were determined by DC protein assay. Equal amounts of total protein (30 μg) from cell lysates were loaded on a 4-20% SDS-PAGE gel (invitrogen), transferred to a polyvinylidene difluoride (PVDF) membrane (Invitrogen), and detected using an ECL Western Blotting Detection System (GE Healthcare). Antibodies used were human Met (clone 25H2,), phospho-Met (Y1234/1235), human EGFR (clone D38B1), phosphor-EGFR(Y1068), AKT, phospho-AKT (S473), p42/44 MAPK, phospho-p42/44 MAPK (T202/Y204) (all from Cell Signaling Technology); β-actin (clone AC-15, Abcam); and anti-HGFantibody (Clone 7-2, provided by Dr. Brian Cao at Van Andel Research Institute). Secondary antibodies used were goat anti-rabbit IgG-HRP and goat anti-mouse IgG-HRP (Santa Cruz Biotechnology).

U87M2 cells [5] = experiment: uPA activity in HGF-autocrine U87M2 cells; assay type: cell-based, human; details: even when stimulated by EGF
Experimental: as §3

SF295SQ1 = experiment: In vivo SGX523 and erlotinib therapeutic efficacy study, SF295SQ1 xenograft; parameters: species or system mice; details: SF295SQ1 subcutaneous; P<0.05 at all three doses
Experimental: as §2

U118 [6] = experiment: In vivo SGX523 and erlotinib therapeutic efficacy study, U118 xenograft; parameters: species or system mice; details: U118 subcutaneous; P<0.05 at all three doses
Experimental: as §2

U87M2 cells [7] = experiment: HGF/EGF-induced downstream signaling, Western blot, U87M2; assay type: cell-based, human; details: 1-10 μM, regardless of additional HGF or EGF stimulation
Experimental: as §4

GBM = details: phase II clinical trials; cited from earlier work
recurrent GBM = details: clinical trials against recurrent GBM; cited from earlier work

C#Cc1cccc(Nc2ncnc3cc(OCCOC)c(OCCOC)cc23)c1 [Erlotinib, erlotinib]
Serum HGF concentration (U87M2 [1]; U87M2, SCID mice): 1277 ± 679 pg/mL | Serum HGF concentration (U87M2 [1]; U87M2, SCIDhgf mice): 8233 ± 3311 pg/mL | Serum HGF concentration (U118 [2]; U118, SCID mice): 348.7 ± 172^ pg/ml | Serum HGF concentration (U118 [2]; U118, SCIDhgf mice): 2940 ± 746 pg/mL | Serum HGF concentration (SF295 SQ1; SF295 SQ1, SCID mice): 858 ± 670 ^ pg/ml | Serum HGF concentration (SF295 SQ1; SF295 SQ1, SCIDhgf mice): 4000 ± 1132 pg/mL | tumor response (X01-GB): very sensitive | p-EGFR in tumor lysates (X01-GB; X01-GB, Western blot with tumor lysates): significantly reduced | prolonged inhibition of U87M2 tumor growth (U87M2 [3]; FIG. 7: SGX523 90 or 120 mg/kg, erlotinib 150 mg/kg, p<0.05 for combination): failed | p-EGFR expression in tumor lysates (V13; V13, Western blot with tumor lysates): significantly reduced | tumor response (V13): induced tumor regression | tumor sensitivity to single agent (U251M2): tolerate | tumor sensitivity to single agent (DBM2): somewhat sensitive | cross inhibition between MET and EGFR pathways (uPA activity) [4]: no evidence of cross inhibition | inhibition of EGF-induced uPA activity ([4]; within 24 hrs, U251M2, T98G, DBM2 cells): specifically blocked

Cn1cc(-c2ccc3nnc(Sc4ccc5ncccc5c4)n3n2)cn1 [SGX523]
inhibition of EGF induced p-EGFR (DBM2 cells): did not inhibit | inhibition of basal level of uPA activity (U87M2 cells [5]): did inhibit the basal level of uPA activity | xenograft tumor sensitivity (SF295SQ1): sensitive to SGX523 in a dose-dependent manner | Serum HGF concentration (U87M2 [1]; U87M2, SCID mice): 152 ± 85 ^4 pg/ml | Serum HGF concentration (U87M2 [1]; U87M2, SCIDhgf mice): 6330 ± 2240 pg/mL | xenograft tumor sensitivity (U118 [6]): sensitive to SGX523 in a dose-dependent manner | Serum HGF concentration (U118 [2]; U118, SCID mice): 91 ± 85 ^5, 6 pg/ml | Serum HGF concentration (U118 [2]; U118, SCIDhgf mice): 4149 ± 1264 pg/mL | inhibition of p-Met and downstream MAPK and AKT pathways (U87M2 cells [7]): can inhibit p-Met and downstream MAPK and AKT pathways | Serum HGF concentration (SF295 SQ1; SF295 SQ1, SCID mice): 262 ± 138 ^4 pg/ml | Serum HGF concentration (SF295 SQ1; SF295 SQ1, SCIDhgf mice): 4214 ± 1084 pg/mL | tumor response (X01-GB): do not respond | tumor regrowth under continuous dosing (U87M2 [3]; U87M2, continuous dosing with SGX523): start to grow back after 2 weeks | tumor regression (U87M2 [3]; U87M2, first week after treatment started): induces U87M2 tumor regression | xenograft tumor sensitivity (U87M2 [3]; U87M2 subcutaneous, P<0.05 at all three doses): sensitive to SGX523 in a dose-dependent manner | tumor response (V13): no response | tumor growth response at increased dose (U251M2; 120 mg/kg): did not improve the responsive | tumor growth response (U251M2; SGX523 60 mg/kg): no response | tumor sensitivity to single agent (U251M2): tolerate | tumor growth response (DBM2; SGX523 60 mg/kg): no response | inhibition of HGF-induced uPA activity ([4]; SGX523 at 0.1 μM after 24 h, U251M2, T98G, DBM2 cells): inhibited HGF-induced uPA activity | cross inhibition between MET and EGFR pathways (uPA activity) [4]: no evidence of cross inhibition

COc1cc2nccc(Oc3ccc(NC(=O)C4(C(=O)Nc5ccc(F)cc5)CC4)cc3)c2cc1OC [XL184]
clinical efficacy (GBM): promising efficacy

AMG102: a neutralizing antibody against HGF
clinical outcome (recurrent GBM): failed in clinical trials
